Measurements taken from publication PMC6497007, “Development, Validation of LC-MS/MS Method and Determination of Pharmacokinetic Parameters of the Stroke Neuroprotectant Neurounina-1 in Beagle Dog Plasma After Intravenous Administration” (Frontiers in Pharmacology, 2019).
Where two headings read alike, the source gives them in different places.

Tests used:
[1] = tested on: transient middle cerebral artery occlusion (tMCAO); set-up: method as in Molinaro et al., 2013; conditions: ref Molinaro et al., 2013, cited from earlier work
[2] = Stability tests in beagle dog plasma (QC samples); assay type: in vitro ADME
Procedure: To assess stability, QC plasma samples (1.5 and 400.0 ng/mL) were subjected to short-term (6 h) incubation at room temperature; four freeze/thaw (-20°C) cycles and 52 h in the autosampler at room temperature. Subsequently, the neurounina-1 concentrations were measured and compared with freshly prepared samples.

beagle dogs = test: Tolerability in beagle dogs after intravenous administration; assay type: in vivo, beagle dog; conditions: single i.v. 0.1, 0.3 and 1 mg/kg
Procedure: (§1) Beagle dogs (n = 5) of both sexes, aged between 2 and 3 years old, weighing between 10 and 14 kg were provided by Camilo Castelo Branco University, Brazil. The dogs were housed in Domingos Alves Veterinary Hospital in individual rooms and fed with a standard canine food. They had free access to water. The dogs underwent rigorous veterinary control and were all considered healthy based on physical examination and laboratory analysis performed before initiation and after completion of each occasion of the study. At the end of the study, the animals were returned to their habitat. This study was carried out in accordance with the recommendations of the general ethical guidelines established by the Brazilian Society for Laboratory Animal Science (SBCAL). The protocol was approved by the Committee for Ethics in Animal Use – State University of Campinas (CEUA/UNICAMP, protocol n° 3340-1).
After an overnight (8 h) fasting, a single intravenous dose of 0.1 mg/kg, 0.3 mg/kg, or 1 mg/kg neurounina-1 formulation was administered to beagle dogs, with 7 days washout period between each dose administration. Blood samples (5 mL) from a suitable antecubital vein were collected into heparin-containing tubes before and 0.03, 0.08, 0.17, 0.25, 0.33, 0.5, 1, 2, 3, 4, 6, 8, 12, and 24 h after the administration of each dose. A total of 210 mL of blood was collected during the study. […]

NCX1 and NCX2 = tested on: NCX1 and NCX2; set-up: method as in Molinaro et al., 2013; conditions: ref Molinaro et al., 2013; cited from earlier work
[3] = ref Molinaro et al., 2013; cited from earlier work
[4] = Pharmacokinetics in plasma after a single intravenous administration to beagle dogs (LC-MS/MS, non-compartmental analysis); assay type: in vivo, beagle dog; conditions: for C0 / Vd / clearance / k el / half-life: both sexes, beagle, dog, plasma, iv; for C0 / AUC0-inf / AUC0-tlast / AUC%extrap: beagle dog plasma; for k el: read-out: Ke (converted)
Procedure: Aliquots (0.05 mL) of each plasma sample were added to glass tubes followed by 0.05 mL of IS (ropivacaine 100 ng/mL). The tubes were vortexed for 5 s and 0.1 mL of acetonitrile were added. The samples were vortexed for 40 s, again, and then centrifuged at 2000 ×g for 5 min. The obtained supernatants were transferred to microvials for analysis.
Neuronina-1 was separated in a 150 mm × 4.6 mm x 5 μm Phenomenex C18Luna reversed phase analytical column (Phenomenex Inc., CA, United States). The temperature of the column was maintained constant at 65°C. The mobile phase used was composed by methanol/acetonitrile/water (50/40/10, v/v/v) + 0.1% of formic acid + 1 M ammonium formate at a flow rate of 1 mL/min (split 1:3). The auto-sampler was maintained at room temperature.
The mass spectrometer (Quattro Micro – Micromass, Waters, United Kingdom) equipped with an electrospray source in the ESI positive polarity mode (ES+) was configured for multiple reaction monitoring (MRM) to monitor the transitions 365.3 > 83.9 and 275.2 > 126.0, for neurounina-1 and ropivacaine, respectively. […] To optimize all MS parameters, a standard solution of the analyte and IS was infused into the mass spectrometer. The optimized values of ion spray voltage, collision energy, and cone voltage were, respectively 2800 (V), 20 (eV), and 20 (V) for neurounina-1 and 2800 (V), 15 (eV), and 15 (V) for ropivacaine. Data acquisition and analysis were performed using the software Masslynx 4.0 (Waters Corporation, Milford, MA, United States).
as §1
After an overnight (8 h) fasting, a single intravenous dose of 0.1 mg/kg, 0.3 mg/kg, or 1 mg/kg neurounina-1 formulation was administered to beagle dogs, with 7 days washout period between each dose administration. Blood samples (5 mL) from a suitable antecubital vein were collected into heparin-containing tubes before and 0.03, 0.08, 0.17, 0.25, 0.33, 0.5, 1, 2, 3, 4, 6, 8, 12, and 24 h after the administration of each dose. A total of 210 mL of blood was collected during the study. The blood samples treated with sodium heparin were centrifuged at approximately 2000 ×g for 10 min at 4°C and the plasma was stored at -20°C until analysis.
Non-compartmental analysis was used to determine the pharmacokinetic parameters of neurounina-1 after the intravenous administration. The concentration at time zero (C0) was estimated by back-extrapolating from the elimination curve. The area under the plasma concentration vs. time curves from zero to the last detectable concentration (AUC0-tlast) were calculated by applying the linear-log trapezoid rule. Extrapolation of these areas to infinity (AUC0-inf) was done by adding the value Clast/ke to the calculated AUC0-tlast (where Clast = the last detectable concentration). Clearance (CL) was calculated by the formula dose/AUC0-inf. Volume of distribution (Vd) was calculated by the formula CL/ke. The WinNonlin software, version 6.4 (Pharsight Corp, Mountain View, CA, United States) was used. Statistical analysis was performed using GraphPad Prism software, version 3.2 (GraphPad Software, San Diego, California, United States).

[5] = 0.1 mg/kg, mean, 0.1 mg/kg single i.v., beagle dog, n = 5
[6] = 0.1 mg/kg, median, 0.1 mg/kg single i.v., beagle dog, n = 5
[7] = 0.3 mg/kg, mean, 0.3 mg/kg single i.v., beagle dog, n = 5
[8] = 0.3 mg/kg, median, 0.3 mg/kg single i.v., beagle dog, n = 5
[9] = 1 mg/kg, mean, 1 mg/kg single i.v., beagle dog, n = 5
[10] = 1 mg/kg, median, 1 mg/kg single i.v., beagle dog, n = 5
[11] = mean, 0.1 mg/kg single i.v., n = 5
[12] = mean, 0.3 mg/kg single i.v., n = 5
[13] = mean, 1 mg/kg single i.v., n = 5
[14] = median, 0.1 mg/kg single i.v., n = 5
[15] = median, 0.3 mg/kg single i.v., n = 5
[16] = median, 1 mg/kg single i.v., n = 5

O=C1CN=C(c2ccccc2)c2cc([N+](=O)[O-])ccc2N1CN1CCCC1 [Neurounina-1, 7-nitro-5-phenyl-1-(pyrrolidin-1-ylmethyl)-1H-benzo[e][1,4]diazepin-2(3H)-one]
time after ischemia induction at which the effect was still notable ([1]; 0.003 to 30 μg/kg intraperitoneally, mouse tMCAO): 5 h
most effective dosage in an animal model of stroke ([1]; administered 3 h after stroke induction): 0.03 µg/kg
protection in animal model of stroke ([1]; dose of 0.003 μg/Kg, compared with 0.03 μg/Kg): less marked
Stability, Accuracy(%) ([2]; Freeze/thaw (4cycles, -20°C), 1.5 ng/mL, beagle dog plasma): 92.7%
Stability, Accuracy(%) ([2]; Freeze/thaw (4cycles, -20°C), 400 ng/mL, beagle dog plasma): 101.3%
Stability, Accuracy(%) ([2]; Post-processing (52 h) in autosampler, 1.5 ng/mL, processed beagle dog plasma): 96.0%
Stability, Accuracy(%) ([2]; Post-processing (52 h) in autosampler, 400 ng/mL, processed beagle dog plasma): 101.8%
Stability, Accuracy(%) ([2]; Short-term (6 h) at room temperature, 1.5 ng/mL, beagle dog plasma): 94.7%
Stability, Accuracy(%) ([2]; Short-term (6 h) at room temperature, 400 ng/mL, beagle dog plasma): 106.5%
Degradation in stability tests ([2]; four freezing and thawing cycles, 6 h at room temperature, 52 h after processing in the self-injector, beagle dog plasma): no significant degradation
tolerability, behavior (beagle dogs): well tolerated
half maximal effective concentration (EC50) (NCX1 and NCX2): in the picomolar to low nanomolar range
lipophilicity index [3]: high lipophilicity index
toxicity [3]: low toxicity
C0 ([4]; 0.1 mg/kg, mean, 0.1 mg/kg single i.v., back-extrapolated, n = 5): 32.5 ng/mL
Vd [4, 5]: 130 L
clearance [4, 5]: 771 mL/min
k el [4, 5]: 9.72e-05 s⁻¹
half-life ([4]; 0.1 mg/kg, mean, 0.1 mg/kg single i.v., beagle dog, n = 5, read-out: t1/2 (converted)): 2.14 h
C0 ([4]; 0.1 mg/kg, median, 0.1 mg/kg single i.v., n = 5): 30.6 ng/mL
Vd [4, 6]: 127 L
clearance [4, 6]: 795 mL/min
k el [4, 6]: 0.000106 s⁻¹
half-life ([4]; 0.1 mg/kg, median, 0.1 mg/kg single i.v., beagle dog, n = 5, read-out: t1/2 (converted)): 1.67 h
C0 ([4]; 0.3 mg/kg, mean, 0.3 mg/kg single i.v., back-extrapolated, n = 5): 111 ng/mL
Vd [4, 7]: 154 L
clearance [4, 7]: 793 mL/min
k el [4, 7]: 8.33e-05 s⁻¹
half-life ([4]; 0.3 mg/kg, mean, 0.3 mg/kg single i.v., beagle dog, n = 5, read-out: t1/2 (converted)): 2.54 h
C0 ([4]; 0.3 mg/kg, median, 0.3 mg/kg single i.v., n = 5): 100 ng/mL
Vd [4, 8]: 103 L
clearance [4, 8]: 591 mL/min
k el [4, 8]: 8.61e-05 s⁻¹
half-life ([4]; 0.3 mg/kg, median, 0.3 mg/kg single i.v., beagle dog, n = 5, read-out: t1/2 (converted)): 2.16 h
C0 ([4]; 1 mg/kg, mean, 1 mg/kg single i.v., back-extrapolated, n = 5): 223 ng/mL
Vd [4, 9]: 211 L
clearance [4, 9]: 1150 mL/min
k el [4, 9]: 9.17e-05 s⁻¹
half-life ([4]; 1 mg/kg, mean, 1 mg/kg single i.v., beagle dog, n = 5, read-out: t1/2 (converted)): 2.04 h
C0 ([4]; 1 mg/kg, median, 1 mg/kg single i.v., n = 5): 197 ng/mL
Vd [4, 10]: 224 L
clearance [4, 10]: 1250 mL/min
k el [4, 10]: 8.89e-05 s⁻¹
half-life ([4]; 1 mg/kg, median, 1 mg/kg single i.v., beagle dog, n = 5, read-out: t1/2 (converted)): 1.94 h
half-life ([4]; beagle dog, overall statement, read-out: half-life (converted)): ~2 h
AUC0-inf [4, 11]: 30.10 ng^∗h/mL
AUC0-tlast [4, 11]: 26.10 ng^∗h/mL
t1/2 ([4]; mean, 0.1 mg/kg single i.v., beagle dog, n = 5, 0.1 mg/kg): 2.02 h
AUC0-inf [4, 12]: 122.42 ng^∗h/mL
AUC0-tlast [4, 12]: 115.81 ng^∗h/mL
t1/2 ([4]; mean, 0.3 mg/kg single i.v., beagle dog, n = 5, 0.3 mg/kg): 2.36 h
AUC0-inf [4, 13]: 263.06 ng^∗h/mL
AUC0-tlast [4, 13]: 257.28 ng^∗h/mL
t1/2 ([4]; mean, 1 mg/kg single i.v., beagle dog, n = 5, 1 mg/kg): 2.13 h
AUC0-inf [4, 14]: 26.44 ng^∗h/mL
AUC0-tlast [4, 14]: 23.00 ng^∗h/mL
AUC%extrap [4, 14]: 3.42%
AUC0-inf [4, 15]: 133.20 ng^∗h/mL
AUC0-tlast [4, 15]: 127.76 ng^∗h/mL
AUC%extrap [4, 15]: 4.56%
AUC0-inf [4, 16]: 184.06 ng^∗h/mL
AUC0-tlast [4, 16]: 179.65 ng^∗h/mL
AUC%extrap [4, 16]: 4.55%
Dose linearity of pharmacokinetics ([4]; single i.v. doses up to 1.0 mg/kg, beagle dog): Linear pharmacokinetics
